Data: patent US20230061319A1, “METHODS OF TREATING TUMORS” (CoImmune, Inc., priority 2020, published 2023)

What was measured:
human tumor cell lines [1] = conditions: broad range of human tumor cell lines; cited from earlier work
human tumor cell lines [2] = conditions: xenografts of human tumor cell lines; cited from earlier work
MART-1 specific CTLs [3] = test: MART-1 specific CTL effector function (IFN-γ, TNF-α, IL-2 secretion, CD107a expression); type: cell-based, human; conditions: at the higher concentrations tested; compared to untreated CTLs
Experimental: (§1) PME-CD40L DCs derived from HLA-A2-positive donors and transfected with antigen-encoding mRNAs were co-cultured with purified CD8^+ T cells. All co-cultures were performed in R-10 media. CD8^+ T cells were purified using the CD8+ T Cell Negative Selection Kit II (Miltenyi Biotec) from non-adherent cells harvested from the monocyte adherence step. The CD8^+ cells were mixed with DCs at a 10:1 ratio and incubated in the presence of 0.2 µg/mL IL-2 and 10 ng/mL IL-7 (R&D Systems). DC/T cell co-cultures were re-stimulated on day 7 and supplemented with 20 units/mL IL-2 plus 10 ng/mL IL-7. Induction of primary immune responses to MART-1 and memory/recall responses to CMV pp65 were measured on day 10.
To identify antigen-specific T cell responses and the phenotype of the antigen specific cells, T cells were harvested on day 10 post-stimulation and incubated with peptide-pulsed T2 target cells at a ratio of 10:1 for 4 hour with Brefeldin A, Monensin (BD Biosciences) and CD107a PE-Cy5. […] After 4 hours of co-culture, responder T cells were stained for 10 minutes with the requisite peptide/pentamer reagent, then washed once and re-stained with CD8-Eflour605, CD45RA-FITC, and CD28-APC. Cells were then washed in PBS and stained with Aquadye (BD Biosciences) for analysis of viability. Labeled cells were then fixed and permeabilized in Fixation/Permeabilization solution (eBiosciences). […]

MART-1 specific CTLs [4] = test: Priming of MART-1 specific CTLs by PME-CD40L DCs in the presence of mTOR inhibitors; type: cell-based, human; conditions: in the presence of the mTOR inhibitor, 10 ng/ml to 1 ug/ml
Experimental: 300 x 10^6 peripheral blood mononuclear cells (PBMCs) were cultured in 30 mL AIM-V media (Thermo Fisher Scientific) in T150 flasks (Corning) for 2 hours to provide for the adherence of monocytes. Non-adherent cells were removed by washing the monolayers twice with cold phosphate buffered saline (PBS) (Cambrex), and the remaining monocytes were cultured in X-VIVO 15 medium (Cambrex) for 5 days, supplemented with 1000 U/mL each of granulocyte macrophage-colony stimulating factor (GM-CSF) (Bayer AG, Leukine® liquid) and IL-4 (R&D Systems). To achieve DC maturation, immature DCs were first cultured on day 5 with 10 ng/mL tumor necrosis factor alpha (TNF-α) (R&D Systems), 1000 µ/mL interferon gamma (IFN-y) (Actimmune), and 1 µg/mL prostaglandin E2 (PGE2) (Sigma). On day 6, phenotypically mature DCs were co-electroporated with RNA encoding CD40L (Argos Lot No. 101606 JSC) at a concentration of 3 ug per million DCs plus either human cytomegalovirus (CMV) pp65 or MART-1 encoding RNAs at 2 µg per million DCs (CMVpp65 RNA-Argos Lot No 071107XF, MART-1-APL RNA-Argos Lot No. 011909HC). […]
PME-CD40L DCs derived from HLA-A2-positive donors and transfected with antigen-encoding mRNAs were co-cultured with purified CD8^+ T cells. […] Induction of primary immune responses to MART-1 and memory/recall responses to CMV pp65 were measured on day 10. […]

CMV pp65 specific CTLs [5] = test: Induction of CMV pp65 specific recall CTLs by PME-CD40L DCs in the presence of mTOR inhibitors; type: cell-based, human
Experimental: 300 x 10^6 peripheral blood mononuclear cells (PBMCs) were cultured in 30 mL AIM-V media (Thermo Fisher Scientific) in T150 flasks (Corning) for 2 hours to provide for the adherence of monocytes. Non-adherent cells were removed by washing the monolayers twice with cold phosphate buffered saline (PBS) (Cambrex), and the remaining monocytes were cultured in X-VIVO 15 medium (Cambrex) for 5 days, supplemented with 1000 U/mL each of granulocyte macrophage-colony stimulating factor (GM-CSF) (Bayer AG, Leukine® liquid) and IL-4 (R&D Systems). To achieve DC maturation, immature DCs were first cultured on day 5 with 10 ng/mL tumor necrosis factor alpha (TNF-α) (R&D Systems), 1000 µ/mL interferon gamma (IFN-y) (Actimmune), and 1 µg/mL prostaglandin E2 (PGE2) (Sigma). On day 6, phenotypically mature DCs were co-electroporated with RNA encoding CD40L (Argos Lot No. 101606 JSC) at a concentration of 3 ug per million DCs plus either human cytomegalovirus (CMV) pp65 or MART-1 encoding RNAs at 2 µg per million DCs (CMVpp65 RNA-Argos Lot No 071107XF, MART-1-APL RNA-Argos Lot No. 011909HC). Generation of MART-1 RNA and CD40L RNA is described in e.g., DeBenedette et al., J. Immunol. 181(8):5296-5305 (2008).
Electroporated DCs were cultured for an additional 4 hours in X-VIVO 15 media supplemented with 800 µ/mL GM-CSF and 500 µ/mL IL-4 at 1 x 10^6 DCs/mL in low adherence 6-well plates (Costar). After 4 hr, the DCs were harvested by washing with cold PBS and prepared as a frozen formulation at 10 x 10^6 DCs/mL in 20% DMSO and 80% FBS, representing antigen electroporated Post Maturation Electroporated (PME)-CD40L DC preparations.
as §1
(§2) To identify antigen-specific T cell responses and the phenotype of the antigen specific cells, T cells were harvested on day 10 post-stimulation and incubated with peptide-pulsed T2 target cells at a ratio of 10:1 for 4 hour with Brefeldin A, Monensin (BD Biosciences) and CD107a PE-Cy5. […] After 4 hours of co-culture, responder T cells were stained for 10 minutes with the requisite peptide/pentamer reagent, then washed once and re-stained with CD8-Eflour605, CD45RA-FITC, and CD28-APC. Cells were then washed in PBS and stained with Aquadye (BD Biosciences) for analysis of viability. Labeled cells were then fixed and permeabilized in Fixation/Permeabilization solution (eBiosciences). Cells where then stained with IFN-γ-PECy7, TNFa-AF700 and IL-2-PerCPcy5.5 in permeabilization buffer and resuspended in FACs buffer prior to acquisition.
CD8^+ cytotoxic T lymphocyte (CTL) responses were used to measure the pp65 CMV recall response induced by PME-CD40L DCs in the presence of mTOR inhibitors everolimus and temsirolimus. PME-CD40L DCs encoding CMV pp65 were used to stimulate recall CTL responses in the presence of the mTOR inhibitors under evaluation for compatibility with the CMN-001 product. The expansion of recall CTLs specific for CMV pp65 was determined on day 3 after a second weekly stimulation with PME-CD40L DCs.

CMV pp65 specific CTLs [6] = test: CMV pp65 specific recall CTL effector function (IFN-γ, TNF-α, IL-2 secretion, CD107a expression); type: cell-based, human
Experimental: as §1, §2
To assess the impact mTOR inhibition would have on CTL effector function in vitro, CMV pp65 specific CTLs were assayed for the ability to secret the cytokines IFN-y, TNF-α and IL-2, and express the degranulation marker CD107a, which serves as a surrogate marker to measure lytic activity. Data presented in FIG. 2A and FIG. 2B measures the absolute numbers of CMV […] specific CTLs that secrete IFN-y, TNF-α or IL-2, or express CD107a in response to CMV pp65 peptide pulsed target cells. The absolute numbers of CMV^+ CTLs shown have been corrected for background non-specific responses to display only the antigen specific response for each parameter.

[7] = 10 ng/ml, compared to DC/CTL co-cultures without mTOR inhibitor, day 3 after second weekly stimulation

In the case of `CO[C@H]1C[C@@H]2CC[C@@H](C)[C@@](O)(O2)C(=O)C(=O)N2CCCC[C@H]2C(=O)O[C@H]([C@H](C)C[C@@H]2CC[C@@H](OP(C)(C)=O)[C@H](OC)C2)CC(=O)[C@H](C)/C=C(\C)[C@@H](O)[C@@H](OC)C(=O)[C@H](C)C[C@H](C)/C=C/C=C/C=C/1C` [Ridaforolimus, ridaforolimus], the “antiproliferative activity in vitro” value (human tumor cell lines [1]) is given as “antiproliferative activity” and the “antiproliferative activity in murine tumor xenograft models” value (human tumor cell lines [2]) is given as “antiproliferative activity”.
For `CO[C@H]1C[C@@H]2CC[C@@H](C)[C@@](O)(O2)C(=O)C(=O)N2CCCC[C@H]2C(=O)O[C@H]([C@H](C)C[C@@H]2CC[C@@H](OC(=O)C(C)(CO)CO)[C@H](OC)C2)CC(=O)[C@H](C)/C=C(\C)[C@@H](O)[C@@H](OC)C(=O)[C@H](C)C[C@H](C)/C=C/C=C/C=C/1C` [temsirolimus], the “numbers of MART-1+ CTL secreting a cytokine or expressing CD107a” value (MART-1 specific CTLs [3]) was “increased”, the “priming of MART-1 specific CTLs by PME-CD40L DC” value (MART-1 specific CTLs [4]) was “able to prime” and the “numbers of CMV pp65 specific CTLs” value (CMV pp65 specific CTLs [5]; [7]) was “increase”. The “percentage of CMV pp65 specific CTLs” value (CMV pp65 specific CTLs [5]; [7]) was “increase”, the “increase in absolute numbers of CMV+ CTL” value (CMV pp65 specific CTLs [5]; 1 µg/ml) was “evident” and the “increase in percentage of CMV+ CTL” value (CMV pp65 specific CTLs [5]; 1 µg/ml) was “evident”. For the same compound, the “numbers of CMV+ CTL secreting a cytokine or expressing CD107a” value (CMV pp65 specific CTLs [6]; 10 ng/ml, compared to untreated CTLs) was “increased” and the “increase in effector function of CMV+ CTL” value (CMV pp65 specific CTLs [6]; 1 µg/ml) was “maintained”.
